Consider nine compounds from paper PMC7767166, “Imidazole and Imidazolium Antibacterial Drugs Derived from Amino Acids” (Pharmaceuticals, 2020).

Data set [1] can be described thus: Critical aggregation concentration by pyrene fluorescence (I1/I3). Type of data set: physicochemical. The conditions noted are these: for CAC Fluorescence, CCM:W, CAC1 / CAC Fluorescence, CCM:W, CAC2: 1/1 bacterial cell culture medium/water; for CAC Fluorescence, CCM:W, CAC1 / CAC Fluorescence, CCM:W, CAC2 / CAC Fluorescence, W: 25 °C; for CAC Fluorescence, CCM:W, CAC1: first break point; for CAC Fluorescence, CCM:W, CAC2: second break point; for CAC Fluorescence, W: in water, from the break point. The text has this: To investigate the microenvironment of the critical aggregation concentration (CAC) for self-assembly in water and in the bacterial cell culture medium by fluorescence, the intensity ratio of two of the peaks (I1/I3) of the pyrene fluorescence spectrum was used. Plots of the pyrene I1/I3 ratio as a function of the total surfactant concentration show a typical sigmoidal decrease in the region where self-assembly takes place. At low concentrations, this ratio is larger as it corresponds to a polar environment for pyrene. When the surfactant concentration increases this ratio decreases rapidly, as the self-assembly favors the location of pyrene in a more hydrophobic environment, until reaching a roughly constant value because of the full incorporation of the probe into the hydrophobic region of the aggregates. Different approaches have been used to estimate CAC values from I1/I3 ratios. The most common approach is the use of the break points, either directly or by extrapolating the values from the intersection of the two straight lines defined at the constant and variable regions of the I1/I3 sigmoidal curve. As CAC represents the threshold of concentration at which self-aggregation starts, the corresponding value can be estimated from the break point at lower concentration (see Figures S9–S14). Fluorescence studies were carried out using MilliQ® water and 1/1 MilliQ® water/bacterial cell culture medium, because with the pure cell culture medium, a strong broad fluorescence emission band was observed precluding an accurate analysis. […] The corresponding CACs obtained in water and in the 1/1 mixture of water/bacterial cell culture medium by fluorescence are shown in Table 2. Pyrene was used as a fluorescence probe to determine the CAC of the compounds in water and 1/1 water/bacterial cell culture medium at 25 ± 1 °C. Fluorescence measurements were performed with a Spex Fluorolog 3-11 instrument equipped with a 450 W xenon lamp (right angle mode). Firstly, a stock pyrene solution of 1.98 × 10^−4 mol/L was prepared in ultrapure methanol. Then, solutions of the imidazole and imidazolium salt compounds (ranging from 6 to 3 × 10^−3 mmol/L) were prepared in different vials and 5 μL of pyrene solution was transferred into the vials, reaching a final pyrene concentration of 9.89 × 10^−7 mol/L in each vial. Fluorescence spectra of pyrene were recorded from 200 to 650 nm after excitation at 337 nm, and the spectra were not corrected for the Xe lamp spectral response. The slit width was set at 5 nm for both excitation and emission. The peak intensities at 373 and 385 nm were determined as I1 and I3, respectively. The ratios of the peak intensities at 373 and 385 nm (I1/I3) for the emission spectra were recorded as a function of the logarithm of concentration. The CAC values were taken from the break point. Samples were excited with a 337 nm NanoLED.

For data set [2], the system named is Bacillus subtilis 1904-E. In words: Bacterial cell viability assay (Resazurin), MBC. The conditions noted are these: read-out: B. subtilis MBC. It counts as cell-based. As to the method:
(§1) The in vitro antibacterial activities of the synthesized compounds were examined against E. coli and B. subtilis. Bacteria were incubated in culture media with varying concentrations of the examined compound and the antibacterial properties were determined by observation of the optical density at 560 nm (bacteriostatic activity) and by the Resazurin cell viability assay (bactericidal activity). The corresponding minimal bactericidal concentration (MBC) and minimum inhibitory concentration (MIC) values that were obtained are summarized in Table 1 (please refer to Table S1 for MIC and MBC values in μM).
(§2) Two bacterial strains were used in the antibacterial assays: Escherichia coli DH5α as a Gram-negative model and Bacillus subtilis 1904-E as a Gram-positive model. Both bacterial strains were donated to our laboratory and can be provided on request by contacting the corresponding authors. Both bacterial strains were incubated at 37 °C and the pre-inoculum incubation time was of 24 h. Liquid Luria-Bertani (LB) medium was used for E. coli DH5α and nutrient broth (NB) for B. subtilis.
(§3) The bacteria cell bank suspensions were thawed and inoculated in the appropriate liquid broth for 24 h at 37 °C with mild agitation. A dilution from these culture solutions was used for the following tests, corresponding to an inoculum of 1 × 10^7 CFU/mL. Stock solutions of all the tested compounds were prepared in DMSO at a concentration of 100 mg/mL, aliquoted, and stored at −20 °C.
(§4) (B) Bacterial cell viability assay: Cell viability was analyzed using a Resazurin (7-Hydroxy-3H-phenoxazin-3-one 10-oxide) assay in a 96-well plate. Once the bacterial cultures of growth inhibition assay had been grown for a total of 24 h, 25 μL of a 0.1 mg/mL resazurin (prepared in LB or NB medium) were added to each well and incubated in the dark at 37 °C for 1 h under stirring. Resazurin has a blue color at the testing pH and turns pink when reduced by the viable bacteria to resorufin. Therefore, pink wells indicate metabolizing bacteria, while blue wells are indicative of bacteria that have lost their ability to convert resazurin to resorufin. Different controls were made in order to corroborate the MBC value obtained by the resazurin assay. The change of color was confirmed at 1, 4, and 24 h after its addition. The viability of bacteria was verified (either confirmed or rejected) by the colony plate-counting method, by seeding 10 μL from the cell culture onto tryptone soy agar plates and observing the presence or absence of bacterial growth after 24 h at 37 °C.

In data set [3] the test system is Escherichia coli DH5α. In words: Bacterial cell viability assay (Resazurin), MBC. Type of data set: cell-based. The conditions noted are these: read-out: E. coli MBC. As to the method: as §1, §2, §3, §4
(Alamar Blue is a resazurin reagent that responds to reducing activity.)

Data set [4] relates to E. coli and B. subtilis. In words: MBC to MIC ratio (bactericidal vs bacteriostatic). The conditions noted are these: from exact MBC and MIC values of Table 1. Type of data set: cell-based. The text has this: The Gram-positive cell wall is composed of a thick, multilayered peptidoglycan sheath outside of the cytoplasmic membrane, while the Gram-negative cell wall is composed of an outer membrane linked by lipoproteins to thin, mainly single-layered peptidoglycan. The peptidoglycan is located within the periplasmic space that is created between the outer and inner membranes. […] Compounds with MBC/MIC >4 are considered to be bacteriostatic. In all the cases in which we could obtain exact MBC and MIC values (Table 1, entries 2, 3, 8 and 9), their ratio was equal to or minor than four.

Data set [5] is described as follows: Solubility in media of the fluorescence studies. The conditions noted are these: water and 1/1 water/bacterial cell culture medium. It counts as physicochemical. As to the method: Fluorescence studies were carried out using MilliQ® water and 1/1 MilliQ® water/bacterial cell culture medium, because with the pure cell culture medium, a strong broad fluorescence emission band was observed precluding an accurate analysis. […] The corresponding CACs obtained in water and in the 1/1 mixture of water/bacterial cell culture medium by fluorescence are shown in Table 2.

The mark [6] stands for this setting: 24 h, Resazurin after 24 h growth, nutrient broth, minimum of three experiments.
Where [7] appears, read: mode of at least three experiments.
Where [8] appears, read: Resazurin after 24 h growth, LB medium, minimum of three experiments.
Setting [9] is: bacterial cell culture medium/water.

Where two headings read alike, the source gives them in different places.

On to `CCCCCCCCCCCCNC(=O)[C@H](C(C)C)n1ccnc1` [Compound 1a], for which the “CAC Fluorescence, CCM:W, CAC1” value in data set [1] was 0.004 mM. Moreover, in data set [1], the “CAC Fluorescence, CCM:W, CAC2” value stood at 0.045 mM. In addition, the “CAC Fluorescence, W” value in data set [1] is 0.085 mM. The minimum bactericidal concentration (MBC) – broadly, the smallest concentration meeting the test's criterion for killing – in data set [2] (setting [6]) is at most 16 µg/mL; in data set [2] (setting [7]) it was 48 µM; in data set [3] (setting [8]), above 2000 µg/mL; in data set [3] (setting [7]), above 6000 µM.

With `CCCCCCCCCCCCNC(=O)[C@H](C(C)C)n1cc[n+](Cc2ccccc2)c1` [Compound 1b], in data set [4], the “bactericidal or bacteriostatic (MBC to MIC ratio equal to or less than four = bactericidal)” value is “true bactericidal activity”. In data set [1], the “CAC Fluorescence, CCM:W, CAC1” value worked out at 0.006 mM; the “CAC Fluorescence, CCM:W, CAC2” value is reported as 0.048 mM; the “CAC Fluorescence, W” value is reported as 0.084 mM. In data set [1] (setting [9]), the “first break point (I1/I3 vs concentration)” value came out at 6 µM and the “second break point (I1/I3 vs concentration)” value is given as “ca. 48 μM”. In data set [2] (setting [6]), the MBC was at most 16 µg/mL. Also, the MBC in data set [2] (setting [7]) amounted to 18 µM. Besides, in data set [3] (setting [8]), the MBC stood at 256 µg/mL. Further, in data set [3] (setting [7]), the MBC was 581 µM.

`CCCCCCCCCCCCNC(=O)[C@H](C(C)C)n1cc[n+](Cc2cccc(C[n+]3ccn([C@@H](C(=O)NCCCCCCCCCCCC)C(C)C)c3)c2)c1` [Compound 1c]: the “bactericidal or bacteriostatic (MBC to MIC ratio equal to or less than four = bactericidal)” value in data set [4] was “true bactericidal activity”. Besides, the “CAC Fluorescence, CCM:W, CAC1” value in data set [1] is on record as 0.016 mM. For the same compound, the “CAC Fluorescence, CCM:W, CAC2” value in data set [1] was 0.21 mM. Besides, the “CAC Fluorescence, W” value in data set [1] is 0.010 mM. Also, the MBC in data set [2] (setting [6]) stood at 32 µg/mL; in data set [2] (setting [7]), 34 µM; in data set [3] (setting [8]), 256 µg/mL; in data set [3] (setting [7]), 269 µM.

`CCCCNC(=O)[C@H](C(C)C)n1ccnc1` [Compound 2a]: in data set [1], the “CAC Fluorescence, CCM:W, CAC1” value worked out at 2.89 mM. The “CAC Fluorescence, CCM:W, CAC2” value in data set [1] is given as 5.4 mM. In addition, the “CAC Fluorescence, W” value in data set [1] is listed as 4.31 mM. Besides, the MBC in data set [2] (setting [6]) is above 2000 µg/mL; in data set [2] (setting [7]) it was above 9000 µM; in data set [3] (setting [8]), above 2000 µg/mL; in data set [3] (setting [7]), above 9000 µM.

Turning to `CCCCNC(=O)[C@H](C(C)C)n1cc[n+](Cc2ccccc2)c1` [Compound 2b], the melting point (in general, the temperature, or range, at which the solid turns liquid) is 33 °C. In data set [1], the “CAC Fluorescence, CCM:W, CAC1” value was 3.46 mM; the “CAC Fluorescence, CCM:W, CAC2” value was 8.4 mM; the “CAC Fluorescence, W” value is listed as 4.57 mM. The MBC in data set [2] (setting [6]) is above 1000 µg/mL. Moreover, the MBC in data set [2] (setting [7]) amounted to 2590 µM. Further, in data set [3] (setting [8]), the minimal bactericidal concentration (MBC) was above 2000 µg/mL. For the same compound, the MBC in data set [3] (setting [7]) is above 5000 µM.

`CCCCNC(=O)[C@H](C(C)C)n1cc[n+](Cc2cccc(C[n+]3ccn([C@@H](C(=O)NCCCC)C(C)C)c3)c2)c1` [Compound 2c]: the melting point worked out at 85 °C. In addition, in data set [1], the “CAC Fluorescence, CCM:W, CAC1” value is on record as 2.25 mM; the “CAC Fluorescence, CCM:W, CAC2” value was determined as 3.54 mM; the “CAC Fluorescence, W” value was 2.34 mM. The MBC in data set [2] (setting [6]) came out at 256 µg/mL. In addition, in data set [2] (setting [7]), the MBC turned out to be 361 µM. The minimum bactericidal concentration (MBC) in data set [3] (setting [8]) is above 2000 µg/mL. In addition, the MBC in data set [3] (setting [7]) was above 2900 µM.

For the compound `CCCCCCCCCCCCNC(=O)[C@H](Cc1ccccc1)n1ccnc1` [Compound 3a], the melting point was found to be 56.1 °C. Also, in data set [1], the “CAC Fluorescence, CCM:W, CAC1” value worked out at 0.018 mM; the “CAC Fluorescence, CCM:W, CAC2” value worked out at 0.325 mM; the “CAC Fluorescence, W” value stood at 0.033 mM. In addition, the MBC in data set [2] (setting [6]) is at most 16 µg/mL. Also, the MBC in data set [2] (setting [7]) was determined as 42 µM. Also, in data set [3] (setting [8]), the MBC was above 2000 µg/mL. Further, the MBC in data set [3] (setting [7]) was above 5000 µM.

In turn, `CCCCCCCCCCCCNC(=O)[C@H](Cc1ccccc1)n1cc[n+](Cc2ccccc2)c1` [Compound 3b] gave a melting point of 16 °C. For the same compound, the “bactericidal or bacteriostatic (MBC to MIC ratio equal to or less than four = bactericidal)” value in data set [4] was “true bactericidal activity”. In addition, in data set [1], the “CAC Fluorescence, CCM:W, CAC1” value came to 0.063 mM; the “CAC Fluorescence, CCM:W, CAC2” value came out at 0.33 mM; the “CAC Fluorescence, W” value worked out at 0.098 mM. In data set [2] (setting [7]), the MBC came out at 7 µM. In data set [3] (setting [8]), the MBC was found to be 128 µg/mL. The MBC in data set [3] (setting [7]) was 229 µM.

With `CCCCCCCCCCCCNC(=O)[C@@H](Cc1ccccc1)n1cc[n+](Cc2cccc(C[n+]3ccn([C@@H](Cc4ccccc4)C(=O)NCCCCCCCCCCCC)c3)c2)c1` [Compound 3c], the melting point stood at 60 °C. Also, in data set [4], the “bactericidal or bacteriostatic (MBC to MIC ratio equal to or less than four = bactericidal)” value is listed as “true bactericidal activity”. Also, the MBC in data set [2] (setting [6]) was found to be 64 µg/mL. The minimum bactericidal concentration (MBC) in data set [2] (setting [7]) is 62 µM. Further, the minimum bactericidal concentration (MBC) in data set [3] (setting [8]) came out at 2000 µg/mL. Further, in data set [3] (setting [7]), the MBC is 1990 µM. Besides, the solubility result in data set [5] is reported as “solubility problems”.
